Reference: EP0497091A1, “Bridged cyclic ketal derivatives” (GLAXO GROUP LIMITED, priority 1991, dated 1992)
≈ marks a conversion by molar mass, not a printed value.

Columns and labels:
[1] = tested on: clinically relevant pathogens; assay: In vitro antifungal activity, agar plate MIC determination; type: cell-based; conditions: Candida albicans
Description: The in vitro evaluation of the anti-fungal activity of compounds of the invention can be performed by determining the minimum inhibitory concentration (MIC) which is the concentration of the test compound in a suitable medium at which growth of a particular microorganism fails to occur.
[¹⁴C] Squalene was separated from unreacted substrate on thin layer chromatography plates and determined by liquid scintillation counting. Inhibition of squalene synthase was quantified by incubating rat liver homogenate with various concentrations of the test compound in the presence of [2-¹⁴C] farnesylpyrophosphate. The concentration of compound giving 50% inhibition of [¹⁴C] squalene production in a 30 minute assay was taken as the IC₅₀ value. […] In practice, a series of agar plates, each having the test compound incorporated at a particular concentration, was inoculated with a standard culture of a clinically relevant pathogen, for example Candida albicans, and each plate was then incubated at 37 °C for 24 to 48 hours depending on the pathogen.

squalene synthase = target: T1, squalene synthase (Rattus norvegicus, UniProt Q02769); assay: Inhibition of squalene synthase ([14C]squalene production from [2-14C]farnesylpyrophosphate); type: biochemical
T1 construct: from tissue; host or cells: rat liver homogenate
T1 sequence (Q02769 1-416): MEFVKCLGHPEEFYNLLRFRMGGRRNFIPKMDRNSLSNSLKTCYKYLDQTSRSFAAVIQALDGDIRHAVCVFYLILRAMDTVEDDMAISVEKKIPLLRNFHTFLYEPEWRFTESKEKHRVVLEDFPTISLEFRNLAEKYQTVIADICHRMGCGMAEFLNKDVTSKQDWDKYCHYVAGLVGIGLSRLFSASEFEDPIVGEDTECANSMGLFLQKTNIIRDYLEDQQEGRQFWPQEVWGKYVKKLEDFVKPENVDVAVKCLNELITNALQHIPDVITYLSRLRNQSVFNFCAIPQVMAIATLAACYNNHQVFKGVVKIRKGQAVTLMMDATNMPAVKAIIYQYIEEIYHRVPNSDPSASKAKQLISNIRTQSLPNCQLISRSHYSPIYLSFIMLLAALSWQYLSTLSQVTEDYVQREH
From the text: A. Biller et al. in J. […] [¹⁴C]squalene is separated from unreacted substrate on thin layer chromatography plates and determined by liquid scintillation counting. […] Acta, Volume 877, 50-60 (1986) and modified to include measurement of cholesterol by high performance liquid chromatography (h.p.l.c.). […] A. […] [¹⁴C] Squalene was separated from unreacted substrate on thin layer chromatography plates and determined by liquid scintillation counting. Inhibition of squalene synthase was quantified by incubating rat liver homogenate with various concentrations of the test compound in the presence of [2-¹⁴C] farnesylpyrophosphate. The concentration of compound giving 50% inhibition of [¹⁴C] squalene production in a 30 minute assay was taken as the IC₅₀ value.

Row | SMILES | MIC [1] [µg/mL] | IC50 (squalene synthase) [nM]
1 | C=C(CC[C@]12O[C@H](C(=O)O)[C@@](O)(C(=O)O)[C@](C(=O)O)(O1)[C@H](OC(=O)CCCCCCC)[C@H]2O)[C@@H](OC(C)=O)[C@H](C)Cc1ccccc1 (relative stereo) [Example 31, [1S-[1α(4R*,5S*),3α,4β,5α,6α,7β]] 1-(4-Acetyloxy-5-methyl-3-methylene-6-phenylhexyl)-4,6,7-trihydroxy-2,8-dioxabicyclo[3.2.1]octane-3,4,5-tricarboxylic acid, 6-octanoate] | 0.1 to 31 (≈ 0.15 to 46.6 µM) | < 100
2 | C=C(CC[C@]12O[C@H](C(=O)O)[C@@](O)(C(=O)O)[C@](C(=O)O)(O1)[C@H](OC(=O)CCCCCCc1ccccc1)[C@H]2O)[C@@H](OC(C)=O)[C@H](C)Cc1ccccc1 (relative stereo) [Example 39, [1S-[1α(4R*,5S*)3α,4β,5α,6α,7β]] 1-(4-Acetyloxy-5-methyl-3-methylene-6-phenylhexyl)-4,6,7-trihydroxy-2,8-dioxabicyclo[3.2.1]octane-3,4,5-tricarboxylic acid, 6-(7-phenylheptanoate)] | 0.1 to 31 (≈ 0.138 to 42.7 µM) | < 100
3 | C=C(CC[C@]12O[C@H](C(=O)O)[C@@](O)(C(=O)O)[C@](C(=O)O)(O1)[C@H](OC(=O)CCCC1CCCCC1)[C@H]2O)[C@@H](OC(C)=O)[C@H](C)Cc1ccccc1 (relative stereo) [Example 41, [1S-[1α(4R*,5S*),3α,4β,5α,6α,7β]] 1-(4-Acetyloxy-5-methyl-3-methylene-6-phenylhexyl)-4,6,7-trihydroxy-2,8-dioxabicyclo[3.2.1]octane-3,4,5-tricarboxylic acid, 6-(4-cyclohexylbutanoate)] | 0.1 to 31 (≈ 0.145 to 44.9 µM) | < 100
4 | C=C(CC[C@]12O[C@H](C(=O)O)[C@@](O)(C(=O)O)[C@](C(=O)O)(O1)[C@H](OC(=O)CC13CC4CC(CC(C4)C1)C3)[C@H]2O)[C@@H](OC(C)=O)[C@H](C)Cc1ccccc1 (relative stereo) [Example 45, [1S-[1α(4R*,5S*),3α,4β,5α,6α,7β]] 1-(4-Acetyloxy-5-methyl-3-methylene-6-phenylhexyl)-4,6,7-trihydroxy-2,8-dioxabicyclo[3.2.1]octane-3,4,5-tricarboxylic acid, 6-[1-(tricyclo[3.3.1.1^3,7]decyl)acetate]] | 0.1 to 31 (≈ 0.14 to 43.4 µM) | < 100
5 | C=C(CC[C@]12O[C@H](C(=O)O)[C@@](O)(C(=O)O)[C@](C(=O)O)(O1)[C@H](OC(=O)OCCCCCCCCC)[C@H]2O)[C@@H](OC(C)=O)[C@H](C)Cc1ccccc1 (relative stereo) [Example 57, [1S-[1α(4R*,5S*),3α,4β.5α,6α,7β]] 1-(4-Acetyloxy-5-methyl-3-methylene-6-phenylhexyl)-4,7-dihydroxy-6-[(nonoxycarbonyl)oxy]-2,8-dioxabicyclo[3.2.1]octane-3,4,5-tricarboxylic acid] | 0.1 to 31 (≈ 0.141 to 43.7 µM) | < 100
6 | C=C(CC[C@]12O[C@H](C(=O)O)[C@@](O)(C(=O)O)[C@](C(=O)O)(O1)[C@H](OC(=O)CC=CCCCC)[C@H]2O)[C@@H](OC(C)=O)[C@H](C)Cc1ccccc1 (relative stereo) [Example 64, [1S-[1α(4R*,5S*),3α,4β,5α,6α,7β]] 1-(4-Acetyloxy-5-methyl-3-methylene-6-phenylhexyl)-4,6,7-trihydroxy-2,8-dioxabicyclo[3.2.1]octane-3,4,5-tricarboxylic acid, 6-[(E/Z)-3-octenoate]] | 0.1 to 31 (≈ 0.151 to 46.8 µM) | < 100
7 | CCC(C)CC(C)CCC(=O)OC1C(O)C2(CCC(O)C(O)C(C)Cc3ccccc3)OC(C(=O)O)C(O)(C(=O)O)C1(C(=O)O)O2 (stereo not drawn) [Example 18, [1S-[1α(3R*S*,4R*,5S*),3α,4β,5α,6α(4S*,6R*),7β]] 1-(3,4-Dihydroxy-5-methyl-6-phenylhexyl)-4,6,7-trihydroxy-2,8-dioxabicyclo[3.2.1]octane-3,4,5-tricarboxylic acid, 6-(4,6-dimethyloctanoate)] | 0.1 to 31 (≈ 0.153 to 47.3 µM) | < 100
8 | C=C(CCC12OC(C(=O)O)C(O)(C(=O)O)C(C(=O)O)(O1)C(OC(=O)C=CC(C)CC(C)CC)C2OC(C)=O)C(OC(C)=O)C(C)Cc1ccccc1 (stereo not drawn) [Example 24, [1S-[1α(4R*,5S*),3α,4β,5α,6α(2E,4R*,6R*),7β]] 7-Acetyloxy-1-(4-acetyloxy-5-methyl-3-methylene-6-phenylhexyl)-4,6-dihydroxy-2,8-dioxabicyclo[3.2.1]octane-3,4,5-tricarboxylic acid, 6-(4,6-dimethyl-2-octenoate)] | 0.1 to 31 (≈ 0.136 to 42.3 µM) | < 100
